Results taken from ChEMBL document CHEMBL1136068 (Bioorg Med Chem Lett, 2003).
pIC50, pKi: −log10 of the molar value. Activity calls are given as the source filed them. No cut-off for these calls is given here.

Assays:
[1] = target: T1, Glucocorticoid receptor (Homo sapiens, UniProt P04150)
T1 sequence (P04150 whole entry): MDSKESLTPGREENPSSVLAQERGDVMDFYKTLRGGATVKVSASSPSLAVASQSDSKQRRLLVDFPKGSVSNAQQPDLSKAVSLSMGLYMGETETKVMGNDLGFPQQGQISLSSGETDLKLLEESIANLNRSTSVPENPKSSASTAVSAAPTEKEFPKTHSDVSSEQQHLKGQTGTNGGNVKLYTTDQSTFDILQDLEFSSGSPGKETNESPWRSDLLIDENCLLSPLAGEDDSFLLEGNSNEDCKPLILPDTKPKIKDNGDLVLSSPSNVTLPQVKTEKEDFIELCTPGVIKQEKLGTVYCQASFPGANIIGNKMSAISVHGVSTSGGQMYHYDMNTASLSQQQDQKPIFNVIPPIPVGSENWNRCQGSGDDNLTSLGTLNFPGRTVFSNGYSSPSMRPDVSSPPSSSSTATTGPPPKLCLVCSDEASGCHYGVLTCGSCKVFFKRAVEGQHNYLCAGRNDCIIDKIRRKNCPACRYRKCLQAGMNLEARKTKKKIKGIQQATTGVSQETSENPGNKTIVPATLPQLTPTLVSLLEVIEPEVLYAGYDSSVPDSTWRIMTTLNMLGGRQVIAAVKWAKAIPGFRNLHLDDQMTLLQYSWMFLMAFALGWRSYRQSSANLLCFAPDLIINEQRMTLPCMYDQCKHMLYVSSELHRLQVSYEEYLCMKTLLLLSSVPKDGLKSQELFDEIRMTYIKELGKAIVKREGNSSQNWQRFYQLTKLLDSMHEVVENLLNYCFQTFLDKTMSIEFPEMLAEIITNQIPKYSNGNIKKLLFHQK

[2] = target: T2, Androgen receptor (Homo sapiens, UniProt P10275)
T2 sequence (P10275 whole entry): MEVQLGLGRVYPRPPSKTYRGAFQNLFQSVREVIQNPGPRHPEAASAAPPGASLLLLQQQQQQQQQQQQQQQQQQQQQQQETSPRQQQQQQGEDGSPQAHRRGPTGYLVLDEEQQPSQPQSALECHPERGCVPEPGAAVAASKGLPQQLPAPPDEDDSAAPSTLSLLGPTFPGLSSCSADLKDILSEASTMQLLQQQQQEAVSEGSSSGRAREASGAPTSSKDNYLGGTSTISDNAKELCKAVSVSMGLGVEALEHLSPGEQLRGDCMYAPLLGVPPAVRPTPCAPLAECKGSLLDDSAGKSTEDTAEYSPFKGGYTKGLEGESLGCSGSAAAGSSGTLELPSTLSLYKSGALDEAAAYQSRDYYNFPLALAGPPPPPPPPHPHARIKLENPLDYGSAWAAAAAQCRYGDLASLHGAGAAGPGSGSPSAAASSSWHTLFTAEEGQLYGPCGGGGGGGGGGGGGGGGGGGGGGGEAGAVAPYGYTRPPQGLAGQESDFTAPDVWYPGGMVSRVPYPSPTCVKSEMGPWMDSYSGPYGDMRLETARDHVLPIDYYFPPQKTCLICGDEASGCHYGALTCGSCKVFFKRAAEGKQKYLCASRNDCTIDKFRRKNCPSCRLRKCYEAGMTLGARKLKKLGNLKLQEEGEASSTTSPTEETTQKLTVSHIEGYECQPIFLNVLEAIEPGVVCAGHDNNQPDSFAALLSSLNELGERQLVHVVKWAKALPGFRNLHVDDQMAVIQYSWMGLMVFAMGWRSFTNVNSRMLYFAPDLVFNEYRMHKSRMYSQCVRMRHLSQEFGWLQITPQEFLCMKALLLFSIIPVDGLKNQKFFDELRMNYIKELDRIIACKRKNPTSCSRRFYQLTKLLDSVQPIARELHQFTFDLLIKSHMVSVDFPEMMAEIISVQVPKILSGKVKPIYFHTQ
Description: Antagonist activity against Androgen receptor

[3] = target: T3, Progesterone receptor (Homo sapiens, UniProt P06401); test: Binding affinity for human progesterone receptor; […]
T3 sequence (P06401 whole entry): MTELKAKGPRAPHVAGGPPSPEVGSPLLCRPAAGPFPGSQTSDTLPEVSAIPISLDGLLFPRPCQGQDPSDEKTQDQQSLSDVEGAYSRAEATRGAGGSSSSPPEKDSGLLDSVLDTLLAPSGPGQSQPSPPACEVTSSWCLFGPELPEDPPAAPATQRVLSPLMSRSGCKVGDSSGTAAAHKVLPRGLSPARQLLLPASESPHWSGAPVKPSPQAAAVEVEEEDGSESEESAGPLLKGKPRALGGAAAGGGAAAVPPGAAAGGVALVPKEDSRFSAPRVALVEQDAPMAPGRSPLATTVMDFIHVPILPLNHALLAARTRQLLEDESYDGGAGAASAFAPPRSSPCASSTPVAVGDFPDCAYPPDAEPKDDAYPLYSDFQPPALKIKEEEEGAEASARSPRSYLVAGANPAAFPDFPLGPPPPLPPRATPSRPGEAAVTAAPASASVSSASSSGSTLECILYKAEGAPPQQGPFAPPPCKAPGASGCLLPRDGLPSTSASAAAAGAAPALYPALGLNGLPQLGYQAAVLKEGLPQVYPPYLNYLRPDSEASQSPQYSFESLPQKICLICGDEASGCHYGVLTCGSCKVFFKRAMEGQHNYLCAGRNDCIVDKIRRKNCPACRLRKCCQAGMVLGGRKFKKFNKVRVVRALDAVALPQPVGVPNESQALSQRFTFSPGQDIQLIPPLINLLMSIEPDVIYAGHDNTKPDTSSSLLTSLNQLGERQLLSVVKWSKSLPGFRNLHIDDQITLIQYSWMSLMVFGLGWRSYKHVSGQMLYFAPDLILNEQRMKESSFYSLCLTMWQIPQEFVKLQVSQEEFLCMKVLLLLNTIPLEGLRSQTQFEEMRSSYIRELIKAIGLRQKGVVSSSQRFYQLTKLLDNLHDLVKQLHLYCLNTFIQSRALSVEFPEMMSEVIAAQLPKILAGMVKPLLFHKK

[4] = target: Estrogen receptor (Homo sapiens, UniProt Q92731+P03372); test: Antagonist efficacy with Estrogen receptor; Efficacy <20% and/or potency >[…] nM; format: functional
[5] = target: T4, Glucocorticoid receptor (Homo sapiens) (UniProt P04150); test: Antagonist efficacy at glucocorticoid (hGR) receptor; format: functional
T4 sequence (whole entry): T1 sequence (P04150 whole entry)

CC1=CC(C)(C)Nc2ccc3c(c21)/C(=C/Br)Oc1ccc(F)cc1-3
pIC50 [1]: < 6.00
pIC50 [2]: 6.60

CC(C)=C/C=C1\Oc2ccc(F)cc2-c2ccc3c(c21)C(C)=CC(C)(C)N3
pKi [3]: 8.60

CC/C(C)=C1\Oc2ccc(F)cc2-c2ccc3c(c21)C(C)=CC(C)(C)N3
Efficacy [4]: inactive

CC(=O)C[C@]1(C(C)=O)CC[C@H]2C3C[C@H](C)C4=CC(=O)CC[C@]4(C)[C@H]3CC[C@@]21C (stereo partly specified)
Efficacy [5]: 157%
pIC50 [2]: 8.21
